The target of this experiment is S. aureus GyrB ATPase (Staphylococcus aureus, UniProt P0A0K8). The experiment is described as follows: S. aureus (SAU) GyrB ATPase inhibition, malachite green phosphate detection (E. coli GyrA + S. aureus GyrB). The format is biochemical. To be noted: compound concentration of 1.0 μM unless otherwise noted; average value where assay was carried out more than once; read-out: S. aureus (SAU) GyrB ATPase % Inhibition. On the procedure: Compounds were tested for inhibition of GyrB ATPase activity using an ammonium molybdate/malachite green-based phosphate detection assay (Lanzetta, P. A., L. J. Alvarez, P. S. Reinach, and O. A. Candia, 1979, 100: 95-97). Assays were performed in multiwell plates in 100 μl reactions containing: 50 mM Hepes buffer pH 7.5, 75 mM ammonium acetate, 8.0 mM magnesium chloride, 1.0 mM ethylenediaminetetraacetic acid, 5% glycerol, 2 mM 1,4-Dithio-DL-threitol, 400 nM bovine serum albumin, 5 μg/ml sheared salmon sperm DNA, 1.25 nM E. coli GyrA, 1.25 nM S. aureus GyrB, 500 μM ATP, and compound in dimethylsulfoxide. Reactions were quenched with 150 μl of ammonium molybdate/malachite green detection reagent containing 1.2 mM malachite green hydrochloride, 8.5 mM ammonium molybdate tetrahydrate, and 1 M hydrochloric acid. Plates were read in an absorbance plate reader at 650 nm and percent inhibition values were calculated using dimethylsulfoxide (2%)-containing reactions as 0% inhibition and novobiocin-containing (2 μM) reactions as 100% inhibition controls. Compound potency was based on IC50 measurements determined from reactions performed in the presence of 10 different compound concentrations.

Where a name gives a salt, the structure may show the parent alone.

As a reminder, the inhibition is the relative decrease from the control value, in per cent.

Sequence of S. aureus GyrB ATPase (P0A0K8 whole entry): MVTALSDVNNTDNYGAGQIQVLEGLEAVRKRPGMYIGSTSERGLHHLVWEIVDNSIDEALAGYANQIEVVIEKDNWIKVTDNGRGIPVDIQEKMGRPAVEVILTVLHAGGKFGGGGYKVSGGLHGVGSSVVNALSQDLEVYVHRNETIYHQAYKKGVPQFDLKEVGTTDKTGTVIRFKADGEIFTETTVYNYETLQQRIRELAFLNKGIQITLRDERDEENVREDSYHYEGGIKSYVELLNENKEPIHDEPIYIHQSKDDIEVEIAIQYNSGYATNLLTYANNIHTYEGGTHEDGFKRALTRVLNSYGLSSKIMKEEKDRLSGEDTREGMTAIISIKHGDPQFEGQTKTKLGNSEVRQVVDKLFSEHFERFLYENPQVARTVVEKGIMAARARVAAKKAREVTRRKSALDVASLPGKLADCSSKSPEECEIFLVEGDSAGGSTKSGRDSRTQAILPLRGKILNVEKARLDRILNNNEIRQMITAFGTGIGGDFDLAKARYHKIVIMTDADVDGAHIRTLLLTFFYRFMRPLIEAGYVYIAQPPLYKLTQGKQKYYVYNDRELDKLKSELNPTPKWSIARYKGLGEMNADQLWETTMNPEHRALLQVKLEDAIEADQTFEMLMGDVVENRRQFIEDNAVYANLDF
Sequence of S. aureus GyrB ATPase (P0AES4 whole entry, further chain): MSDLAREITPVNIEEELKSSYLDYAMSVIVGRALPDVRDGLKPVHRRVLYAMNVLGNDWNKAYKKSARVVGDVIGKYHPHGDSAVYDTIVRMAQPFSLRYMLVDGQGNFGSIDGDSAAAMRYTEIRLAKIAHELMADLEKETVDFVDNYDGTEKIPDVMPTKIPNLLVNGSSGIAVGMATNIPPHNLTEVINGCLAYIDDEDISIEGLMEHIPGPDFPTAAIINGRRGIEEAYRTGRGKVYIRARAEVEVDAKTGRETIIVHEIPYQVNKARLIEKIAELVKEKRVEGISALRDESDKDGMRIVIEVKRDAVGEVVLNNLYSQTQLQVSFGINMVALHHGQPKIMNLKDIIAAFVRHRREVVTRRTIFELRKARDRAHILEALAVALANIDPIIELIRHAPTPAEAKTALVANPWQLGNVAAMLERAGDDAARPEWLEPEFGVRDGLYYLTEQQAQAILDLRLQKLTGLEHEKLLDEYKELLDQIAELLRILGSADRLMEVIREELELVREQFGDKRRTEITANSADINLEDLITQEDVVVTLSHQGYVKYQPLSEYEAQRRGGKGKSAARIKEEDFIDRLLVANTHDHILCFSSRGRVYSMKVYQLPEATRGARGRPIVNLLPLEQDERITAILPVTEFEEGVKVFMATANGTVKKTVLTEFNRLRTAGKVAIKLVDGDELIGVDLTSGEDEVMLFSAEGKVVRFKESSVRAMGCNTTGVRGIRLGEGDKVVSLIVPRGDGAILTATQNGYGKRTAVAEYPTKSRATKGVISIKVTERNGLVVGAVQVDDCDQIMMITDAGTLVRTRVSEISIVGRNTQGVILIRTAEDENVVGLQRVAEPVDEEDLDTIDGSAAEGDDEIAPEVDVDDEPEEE

`CCNC(=O)Nc1cc(-c2nc(C(F)(F)F)cs2)c(-c2cncc(-c3n[nH]c(=O)o3)n2)cn1` [Example 35, 1-ethyl-3-(5-(6-(5-oxo-4,5-dihydro-1,3,4-oxadiazol-2-yl)pyrazin-2-yl)-4-(4-(trifluoromethyl)thiazol-2-yl)pyridin-2-yl)urea]: the inhibition at 1 µM was 103%.

As for `CCNC(=O)Nc1cc(-c2nc(C(F)(F)F)cs2)c(-c2nc(-c3ncccn3)c(-c3n[nH]c(=O)o3)s2)cn1` [Example 36, 1-ethyl-3-(5-(5-(5-oxo-4,5-dihydro-1,3,4-oxadiazol-2-yl)-4-(pyrimidin-2-yl)thiazol-2-yl)-4-(4-(trifluoromethyl)thiazol-2-yl)pyridin-2-yl)urea], the inhibition at 1 µM turned out to be 107%.

Take `CCNC(=O)Nc1cc(-c2nc(C(F)(F)F)cs2)c(-c2nc(-c3ncnn3C)c(-c3n[nH]c(=O)o3)s2)cn1` [Example 37, 1-ethyl-3-(5-(4-(1-mcthyl-1H-1,2,4-triazol-5-yl)-5-(5-oxo-4,5-dihydro-1,3,4-oxadiazol-2-yl)thiazol-2-yl)-4-(4-(trifluoromethyl)thiazol-2-yl)pyridin-2-yl)urea]: the inhibition at 1 µM is 112%.

In the case of `CCNC(=O)Nc1cc(-c2nnc(-c3ccncc3)o2)c(-c2cncc(-c3n[nH]c(=O)o3)c2)cn1` [Example 38, 1-ethyl-3-(5′-(5-oxo-4,5-dihydro-1,3,4-oxadiazol-2-yl)-4-(5-(pyridin-4-yl)-1,3,4-oxadiazol-2-yl)-3,3′-bipyridin-6-yl)urea], the inhibition at 1 µM was determined as 108%.

Turning to `CCNC(=O)Nc1cc(-c2nc(-c3ccncc3)cs2)c(-c2cncc(-c3n[nH]c(=O)o3)c2)cn1` [Example 39, N-ethyl-N′-[5′-(5-oxo-4,5-dihydro-1,3,4-oxadiazol-2-yl)-4-(4-pyridin-4-yl-1,3-thiazol-2-yl)-3,3′-bipyridin-6-yl]urea], the inhibition at 1 µM was 102%.

For the compound `CCCCOc1ncc(-c2cnc(NC(=O)NCC)cc2-c2nc(C(F)(F)F)cs2)cc1-c1n[nH]c(=O)o1` [Example 40, 1-(6′-butoxy-5′-(5-oxo-4,5-dihydro-1,3,4-oxadiazol-2-yl)-4-(4-(trifluoromethyl)thiazol-2-yl)-3,3′-bipyridin-6-yl)-3-ethylurea], the inhibition at 1 µM came to 117%.

As for `CCCCOc1ncc(-c2cnc(NC(=O)NCC)cc2-c2nc(C(F)(F)F)cs2)cc1-c1nnc(C)o1` [Example 41], the inhibition at 1 µM was 109%.

In the case of `CC(C)NC(=O)Nc1cc(-c2nc(C(F)(F)F)cs2)c(-c2cncc(-c3n[nH]c(=O)o3)c2)cn1` [Example 42, 1-isopropyl-3-(5′-(5-oxo-4,5-dihydro-1,3,4-oxadiazol-2-yl)-4-(4-(trifluoromethyl)thiazol-2-yl)-3,3′-bipyridin-6-yl)urea], the inhibition at 1 µM is 106%.

As to `CCCNC(=O)Nc1cc(-c2nc(C(F)(F)F)cs2)c(-c2cncc(-c3n[nH]c(=O)o3)c2)cn1` [Example 44, 1-(5′-(5-oxo-4,5-dihydro-1,3,4-oxadiazol-2-yl)-4-(4-(trifluoromethyl)thiazol-2-yl)-3,3′-bipyridin-6-yl)-3-propylurea], the inhibition at 1 µM came to 96%.

As to `O=C(Nc1cc(-c2nc(C(F)(F)F)cs2)c(-c2cncc(-c3n[nH]c(=O)o3)c2)cn1)NC1CC1` [Example 45, 1-cyclopropyl-3-(5′-(5-oxo-4,5-dihydro-1,3,4-oxadiazol-2-yl)-4-(4-(trifluoromethyl)thiazol-2-yl)-3,3′-bipyridin-6-yl)urea], the inhibition at 1 µM was 103%.

On to `O=C(Nc1cc(-c2nc(C(F)(F)F)cs2)c(-c2cncc(-c3n[nH]c(=O)o3)c2)cn1)NC1CCCCC1` [Example 46, 1-cyclohexyl-3-(5′-(5-oxo-4,5-dihydro-1,3,4-oxadiazol-2-yl)-4-(4-(trifluoromethyl)thiazol-2-yl)-3,3′-bipyridin-6-yl)urea], for which the inhibition at 1 µM was -1%.

On to `CCN(CC)C(=O)Nc1cc(-c2nc(C(F)(F)F)cs2)c(-c2cncc(-c3n[nH]c(=O)o3)c2)cn1` [Example 47, 1,1-diethyl-3-(5′-(5-oxo-4,5-dihydro-1,3,4-oxadiazol-2-yl)-4-(4-(trifluoromethyl)thiazol-2-yl)-3,3′-bipyridin-6-yl)urea], for which the inhibition at 1 µM came to 72%.

As to `O=C(NCC1CC1)Nc1cc(-c2nc(C(F)(F)F)cs2)c(-c2cncc(-c3n[nH]c(=O)o3)c2)cn1` [Example 48, 1-(cyclopropylmethyl)-3-(5′-(5-oxo-4,5-dihydro-1,3,4-oxadiazol-2-yl)-4-(4-(trifluoromethyl)thiazol-2-yl)-3,3′-bipyridin-6-yl)urea], the inhibition at 1 µM was 95%.

Take `O=C(NCC(F)(F)F)Nc1cc(-c2nc(C(F)(F)F)cs2)c(-c2cncc(-c3n[nH]c(=O)o3)c2)cn1` [Example 49, 1-(5′-(5-oxo-4,5-dihydro-1,3,4-oxadiazol-2-yl)-4-(4-(trifluoromethyl)thiazol-2-yl)-3,3′-bipyridin-6-yl)-3-(2,2,2-trifluoroethyl)urea]: the inhibition at 1 µM stood at 99%.

With `O=C(NCC(F)F)Nc1cc(-c2nc(C(F)(F)F)cs2)c(-c2cncc(-c3n[nH]c(=O)o3)c2)cn1` [Example 50, 1-(2,2-difluoroethyl)-3-(5′-(5-oxo-4,5-dihydro-1,3,4-oxadiazol-2-yl)-4-(4-(trifluoromethyl)thiazol-2-yl)-3,3′-bipyridin-6-yl)urea], the inhibition at 1 µM stood at 105%.

With `CCNC(=O)Nc1cc(-c2nc(C(F)(F)F)c(CNCCN3CCOCC3)s2)c(-c2cncc(-c3n[nH]c(=O)o3)c2)cn1` [Example 51, 1-ethyl-3-(5′-(5-hydroxy-1,3,4-oxadiazol-2-yl)-4-(5-((2-morpholinoethylamino)methyl)-4-(trifluoromethyl)thiazol-2-yl)-3,3′-bipyridin-6-yl)urea trihydrochloride], the inhibition at 1 µM came out at 98%.

`CCNC(=O)Nc1cc(-c2nc(C(F)(F)F)c(CNC3CCCCC3)s2)c(-c2cncc(-c3n[nH]c(=O)o3)c2)cn1` [Example 52, 1-(4-(5-((cyclohexylamino)methyl)-4-(trifluoromethyl)thiazol-2-yl)-5′-(5-hydroxy-1,3,4-oxadiazol-2-yl)-3,3′-bipyridin-6-yl)-3-ethylurea hydrochloride]: the inhibition at 1 µM was found to be 108%.

For `CCNC(=O)Nc1cc(-c2nc(C(F)(F)F)c(CNC3CCCC3)s2)c(-c2cncc(-c3n[nH]c(=O)o3)c2)cn1` [Example 53, 1-(4-(5-((cyclopentylamino)methyl)-4-(trifluoromethyl)thiazol-2-yl)-5′-(5-hydroxy-1,3,4-oxadiazol-2-yl)-3,3′-bipyridin-6-yl)-3-ethylurea hydrochloride], the inhibition at 1 µM came out at 109%.

Take `CCNC(=O)Nc1cc(-c2nc(C(F)(F)F)c(CNCCOC)s2)c(-c2cncc(-c3nnc(C)o3)c2)cn1` [Example 54, 1-ethyl-3-(4-(5-((2-methoxyethylamino)methyl)-4-(trifluoromethyl)thiazol-2-yl)-5′-(5-methyl-1,3,4-oxadiazol-2-yl)-3,3′-bipyridin-6-yl)urea]: the inhibition at 1 µM was found to be 97%.

Regarding `CCNC(=O)Nc1cc(-c2nc(C(F)(F)F)c(CNCCN3CCOCC3)s2)c(-c2cncc(-c3nnc(C)o3)c2)cn1` [Example 55, 1-ethyl-3-(5′-(5-methyl-1,3,4-oxadiazol-2-yl)-4-(5-((2-morpholinoethylamino)methyl)-4-(trifluoromethyl)thiazol-2-yl)-3,3′-bipyridin-6-yl)urea], the inhibition at 1 µM is 96%.

These data come from patent US20120101100A1 (priority 2008, published 2012).
